The text below walks through data of publication PMC9014415, “Repositioning of a Diaminothiazole Series Confirmed to Target the Cyclin-Dependent Kinase CRK12 for Use in the Treatment of African Animal Trypanosomiasis” (Journal of Medicinal Chemistry, 2022).

For orientation: AUC means the area under the concentration-time curve, a measure of exposure. High values mean more exposure, low ones less exposure. A word on the Cmax: it is the highest concentration seen after dosing. Broadly, the Tmax is the time at which the peak concentration occurs.

The nature of series [1]: Comparative cattle PK, IM compared to SC (NorthWest Biopharm). It counts as in vivo. The settings on record: Aberdeen Angus crossbreed and Limousin crossbreed, bovine, blood, 5 mg/kg free base. On the procedure:
Kolliphor EL, N-methyl pyrrolidone, 2-pyrrolidone and 11% water suitable for injection) […]
Comparative cattle PK (Northwestern Biopharm)
The pharmacokinetics for compound 2 when dosed as free base in the best tolerated formulation: […]
Kolliphor EL, N-methyl pyrrolidone, 2-pyrrolidone and 11% water at 5 mg/kg was assessed, IM
compared to SC. Bioanalysis of blood
samples was conducted at the University of Dundee. […]

The nature of series [2]: PK and formulation studies in Sprague Dawley rats, IM. The class given is in vivo. The following applies: rat, single IM 5 mg/kg. On the procedure: 2.4 Protein plasma binding […]
2.6 PK and formulation studies - male Sprague rats
Compound 1 was dosed SC at 5 mg free base/kg (dose volume 0.2 or 1 mL/kg; dose vehicle 10% N-methyl-2- pyrrolidinone (NMP), 30% 2-pyrrolidinone, 40% PEG400, 20% deionized water or 10% DMSO, 30% PEG400 and 60% deionized water, respectively) or IM at 5 and 10 mg free base/kg (dose volume 0.2 mL/kg; dose vehicle 10% NMP, 30% 2-pyrrolidinone, 40% PEG400, 20% deionized water or 83.4% 2-pyrrolidinone/polyvinylpyrrolidone (PVP), 16.6% saline or 80% 2-pyrrolidinone/NMP/PVP, 20% (0.05% 2-propanol in saline) to male SD rats (n=3).
Compound 2 was dosed IV at 3 mg free base/kg (dose volume 1 mL/kg; dose vehicle: 10% DMSO, 40% PEG400 and 50% deionized water) or IM at 5, 10 and 20 mg free base/kg (dose volume 0.2 […]
and 0.4 mL/kg; dose vehicle 10% NMP, 30% 2-pyrrolidinone, 40% PEG400, 20% deionized water or 83.4% 2-pyrrolidinone/polyvinylpyrrolidone (PVP), 16.6% saline or 80% 2-pyrrolidinone/NMP/PVP, 20% 0.05% 2-propanol in saline or 40% 0.3M Acetate Buffer, 20% Kolliphor, 20% glycerol formal, 20% 2-pyrrolidinone or 40% 0.3M Acetate Buffer, 20% glycerol formal, 20% 2-pyrrolidinone) to male SD rats (n=3). […]
Compound 2 was dosed IM at 10 mg free base/kg (dose volume 2 mL/10 kg; dose vehicle 40% 0.3 M Acetate Buffer, 20% Kolliphor EL, 20% glycerol formal, 20% 2-pyrrolidone) or IV at 2 mg free base/kg (dose volume 0.4 mL/10 kg; 40% 0.3 M Acetate Buffer, 20% Kolliphor EL, 20% glycerol formal, 20% 2-pyrrolidone) to male ruminating Holstein-Friesian cross animals (n = 3). Blood samples were taken from each animal using 18-G needles into EDTA (K2) vacutainers before dosing […]
into a cool box containing iced water and were processed within 2 h of collection.
2.8 Formulation and tolerability studies for compound 2 (NorthWest Biopharm) A study to identify alternative formulations was conducted. Compound 2, either as the hydrochloride salt or free base, was screened to identify a 50 mg/mL soluble formulation suitable for injection. […]
Kolliphor EL, N-methyl pyrrolidone, 2-pyrrolidone and 11% water at 5 mg/kg was assessed, IM […]
A screen of salt forms as alternatives to the hydrochloride was carried out at Drugabilis. Ten pharmaceutically acceptable counter ions were assessed and three were selected for further study […]
(citrate, fumarate and phosphate) (Figure 9). These alternative salt forms of compound 2 were prepared and formulated in the best vehicle determined by injection site tolerability analysis (0.3M sodium acetate buffer, Kolliphor EL, N-methyl pyrrolidone, 2-pyrrolidone, and 11% water suitable for injection). […]

Take `CC(C)CS(=O)(=O)N[C@H]1CC[C@H](Nc2nc(N)c(C(=O)c3c(F)cc(CN(C)C)cc3F)s2)CC1` [Compound 2, N-(trans)-[4-[[4-Amino-5-[4-(dimethylaminomethyl)-2,6-difluoro-benzoyl]thiazol-2-yl]amino]cyclohexyl]-2-methyl-propane-1-sulfonamide]: in series [1] (IM), the AUC is 3170 ng·h/mL, the Cmax was determined as 360 ng/mL and the Tmax stood at 0.5 h. Further, in series [1] (SC), the exposure (AUC) is 967 ng·h/mL, the Cmax was 86 ng/mL and the time of peak concentration (Tmax) worked out at 3 h.
`CC(C)CS(=O)(=O)N[C@H]1CC[C@H](Nc2nc(N)c(C(=O)c3c(F)cccc3F)s2)CC1` [Compound 1, N-((trans)-4-((4-Amino-5-(2,6-difluorobenzoyl)thiazol-2-yl)amino)cyclohexyl)-2-methylpropane-1-sulfonamide] had a Cmax in series [2] (male, blood, Sprague Dawley rats, 10% NMP, 30% 2-pyrrolidinone, 40% PEG400, 20% water, mean) of 92 ng/mL. Also, the AUC(0-t) in series [2] (male, blood, Sprague Dawley rats, 10% NMP, 30% 2-pyrrolidinone, 40% PEG400, 20% water, mean, read-out: AUC0-8 (converted)) is 354 ng·h/mL. In addition, the “Time at which free concentration in blood <EC99” value was 3 h in series [2] (formulation A: 83.4% PVP/2-pyrrolidone, 16.6% saline) and 4 h in series [2] (formulation B: 80% vehicle 1 (NMP:2-pyrrolidone): 20% vehicle 2).
